Assay [1] has as its target T1, Aromatase (Homo sapiens, UniProt P11511).
T1 sequence (P11511 whole entry): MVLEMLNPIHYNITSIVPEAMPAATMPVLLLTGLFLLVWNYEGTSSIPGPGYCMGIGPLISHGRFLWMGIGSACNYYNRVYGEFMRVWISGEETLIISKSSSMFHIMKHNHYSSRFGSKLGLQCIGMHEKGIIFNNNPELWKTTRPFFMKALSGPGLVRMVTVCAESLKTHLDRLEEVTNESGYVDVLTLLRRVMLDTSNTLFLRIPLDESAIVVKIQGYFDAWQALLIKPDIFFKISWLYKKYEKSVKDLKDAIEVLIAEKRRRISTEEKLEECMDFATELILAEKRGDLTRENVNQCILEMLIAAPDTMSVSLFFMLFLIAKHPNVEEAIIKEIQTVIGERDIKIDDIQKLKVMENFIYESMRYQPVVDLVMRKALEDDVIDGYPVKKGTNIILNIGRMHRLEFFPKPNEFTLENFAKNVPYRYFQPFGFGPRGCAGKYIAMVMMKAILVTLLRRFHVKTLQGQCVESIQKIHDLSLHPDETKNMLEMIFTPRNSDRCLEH
Nature of the assay: Inhibition of human placental microsomal aromatase using [1beta-3H] androstenedione as substrate assessed as tritiated H2O release preincubated for 5 mins followed by protein addition measured after 20 mins by beta counting method.

The target in assay [2] is T1, Aromatase.
Description: Competitive inhibition of human placental microsomal aromatase using androgen as substrate
Assay [3] has as its target T1, Aromatase. Nature of the assay: Inhibition of human placental microsomal aromatase using [1beta-3H] androstenedione as substrate assessed as tritiated H2O release after 15 mins by liquid scintillation counting method.
The target in assay [4] is T1, Aromatase. Nature of the assay: Inhibition of particulate fractions of human breast cancer derived aromatase.
Assay [5] concerns the target T1, Aromatase. As to the kind of experiment: Inhibition of human aromatase using testosterone as substrate incubated for 1 hr by HTRF assay. (In TR-FRET formats the signal depends on donor and acceptor labels being close together.)
Assay [6] concerns the target T1, Aromatase. As to the kind of experiment: Inhibition of human placental microsomal aromatase using testosterone as substrate assessed as formation of estradiol after 10 mins.

One may read the IC50 as the concentration needed to halve the response being measured. Turning to `C[C@]12Cc3cc[nH]c3C(=O)[C@@H]1CC[C@@H]1[C@@H]2CC[C@]2(C)[C@@H](O)CC[C@@H]12`, the IC50 in assay [1] is 512 nM. What is called Ki is the dissociation constant of the complex between target and ligand, obtained from inhibition or displacement. In turn, `COc1ccc2c(Cc3ccccc3)c(-c3ccc(Cl)cc3)c(=O)oc2c1` gave a Ki in assay [2] of 84 nM. As for `C=CC[C@@H]1CC2=CC(=O)C=C[C@]2(C)[C@H]2CC[C@]3(C)[C@@H](O)CC[C@H]3[C@H]12`, the 50% inhibitory concentration (IC50) in assay [3] was found to be 450 nM. `C[C@]12CCC(=O)C(O)=C1CC[C@@H]1[C@@H]2CC[C@]2(C)C(=O)CC[C@@H]12` [FORMESTANE] displayed a concentration for half-maximal inhibition (IC50) in assay [4] of 30 nM.

`C=CC[C@@H]1CC2=CCCC[C@]2(C)[C@H]2CC[C@]3(C)C(=O)CC[C@H]3[C@H]12`: the IC50 in assay [3] was 750 nM. In turn, `Fc1ccc(-c2cc(-n3cccc3)c3ccccc3n2)cc1` came in with a 50% inhibitory concentration (IC50) in assay [5] of 800 nM. For `C=CC[C@@H]1CC2=CC(=O)CC[C@]2(C)[C@H]2CC[C@]3(C)C(=O)CC[C@H]3[C@H]12`, the IC50 in assay [3] was found to be 590 nM.

With `CC/C(=C(\c1ccc(O)cc1)c1ccc(OCCN(C)C)cc1)c1ccccc1` [AFIMOXIFENE], the concentration for half-maximal inhibition (IC50) in assay [6] amounted to 530000 nM.

For the origin of these results see ChEMBL document CHEMBL3817793, “Recent Progress in the Discovery of Next Generation Inhibitors of Aromatase from the Structure-Function Perspective” (J Med Chem, 2016).
